{
  "source": "patent US20220062233A1",
  "about": "(The Board of Trustees of the Leland Stanford Junior …, priority 2018, published 2022)",
  "key": {"[1]": {"target": "T1, interaction between Supt4h and NGN (subunit of Supt5h) (Homo sapiens, UniProt O00267+P63272)", "T1 construct": "expressed in transfected cells", "test": "Split Gaussia luciferase complementation assay (M2-8 Luciferase)", "assay_type": "cell-based", "conditions": "M2-8 cells", "outline": "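HEK293-derived M2-8 cells inducibly express Supt4h-Gluc1 and NGN-Gluc2 fragments (stabilizing mutations) on RheoSwitch ligand addition; ligand plus compound added 24 h after plating and left 24 h. Cells frozen, lysed with 10 μg/ml native coelenterazine, 1 h room temperature dark; complemented luciferase luminescence read.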"}, "[2]": {"system": "M2-8 cells", "test": "M2-8 Cell viability Assay", "assay_type": "cell-based", "conditions": "at the concentration of 1000 nM"}, "[3]": {"system": "mutant HTT", "test": "Mutant HTT assay in lymphoblastoid cells (LBC), Western blot", "assay_type": "cell-based, human", "conditions": "read-out: LBC IC20 (nM) mHTT, 3 days compound treatment", "outline": "(§1)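 HD patient lymphoblastoid cells (GM14044, 250 CAG repeats in mutant allele) treated with compound for 3 days. Lysates normalised by BCA, run on SDS-PAGE and immunoblotted: mutant HTT with anti-polyQ MW1, wild-type HTT with anti-Huntingtin antibody, TBP and tubulin also probed. Band intensities quantified by infrared imaging.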"}, "[4]": {"system": "wild-type HTT", "test": "Wild-type HTT assay in lymphoblastoid cells (LBC), Western blot", "assay_type": "cell-based, human", "conditions": "3 days compound treatment, read-out: LBC IC20 (nM) wtHTT", "outline": "as §1"}, "[5]": {"system": "mutant HTT", "test": "Mutant HTT assay in induced pluripotent stem cells (iPSC)", "assay_type": "cell-based, human", "conditions": "HD patient iPSCs, one day incubation, read-out: iPSC IC20 (nM) mHTT", "outline": "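Huntington's disease patient iPSCs (ND50036) plated at 7,000 cells/well, compound-treated after 48 h for one day in mTeSR1. Lysates normalised by BCA protein, then mutant HTT measured by sandwich ELISA: anti-human HTT capture, biotinylated mutant-HTT-specific detection, streptavidin-HRP/TMB colorimetric readout, interpolated from a standard curve.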"}, "[6]": {"system": "Gmr::HTT97Q fly (mutant HTT, rough eye)", "test": "HD-Drosophila phenotypic assay (rough eye analysis)", "assay_type": "in vivo, Drosophila melanogaster", "conditions": "Gmr-HTT97Q flies, compound 10 μM in media", "source_text": "D. Alleviation of Neuron Degeneration Phenotypes of Mutant HTT in Drosophila HD Models\nThe Drosophila melanogaster (fruit fly) HD models carry the coding sequence of human HTT exon1 with 97 CAG repeats to mimic mutant HTT of Huntington's disease (HD). The Gmr::HTT97Q fly, expressing mutant HTT primarily in the neurons of Drosophila compound eyes, has a severe degeneration of photoreceptor neurons and the phenotypic trait ‘rough eye’. All of the fly stocks and genetics crosses are maintained at 25° C. on standard cornmeal yeast agar media.\nb. Eye Morphology (Rough Eye) Analysis\nFifteen adult male flies (Gmr-HTT97Q/Gmr-HTT97Q or Gmr/Gmr) are crossed with 15 virgin female flies W1118(+/+) in a vial containing standard yeast agar media with the compound in a concentration of 10 μM. Parent-flies are removed from vials at day 7, followed by a collection of newly hatched flies for ‘rough eye’ analysis. The morphology of compound eyes is captured using a Leica DMR upright microscope equipped with a digital camera (CoolSNAP 5.0, Photometrics). To increase the depth of field, imaging software is used to create montage composite images (Helicon Focus, HeliconSoft). A total of 10 flies are collected for analysis in each individual condition, and the biological experiment is conducted three times. DMSO, the reagent solvent of the compound, is included as a control."}, "[7]": {"system": "Lymphoblastoid cells (GM14044)", "test": "LBC cell viability (Cell Titer-Glo)", "assay_type": "cell-based, human", "conditions": "at the concentration of IC20, 3-day compound treatment", "experimental": "Cell viability was determined by Cell Titer-Glo reagent (Promega, PRG9243). After 3-day compound treatment, 15 μl of cell suspension was taken out from plate and incubated with 10 μl of CTG reagent. The values of reaction mixture were detected by Tecan."}, "[8]": {"system": "Huntington's disease patient iPSCs (ND50036)", "test": "iPSC viability at IC20", "assay_type": "cell-based, human", "conditions": "at the concentration of IC20"}, "[9]": {"system": "mouse hepatocytes", "test": "In vitro metabolic stability in mouse hepatocytes", "assay_type": "in vitro ADME", "experimental": "A. In Vitro Metabolic Stability in Hepatocyte\nA compound's metabolic stability was assessed using mouse hepatocytes incubated with pre-defined concentration of test articles over several incubation period. The extent of metabolism was calculated from the disappearance of the test compound measured by liquid chromatography mass spectrometry (LC-MS), compared to that of 0-min control. After incubation, quench solutions including internal standards were added and analyzed by LC/MS. The elimination rate constant and intrinsic clearance (CLhepatocyte) values were calculated by linear regression of the compound elimination over the duration of incubation, normalized to the cell number in the given volume of incubation medium."}},
  "data": [
    {"compound": "OCc1ccc(CN[C@H]2CCCc3c2[nH]c2ccc(Br)cc32)cc1", "note": "[Compound 3]", "values": [
      {"measurement": "IC50", "setting": "[1]", "value": "> 1", "unit": "µM"},
      {"measurement": "M2-8 Cell viability", "setting": "[2]", "value": "+ (cell viability is greater than 50% at the concentration of 1000 nM)"},
      {"measurement": "IC20", "setting": "[3]", "value": "> 1000", "unit": "nM"},
      {"measurement": "IC20", "setting": "[4]", "value": "> 1000", "unit": "nM"},
      {"measurement": "IC20", "setting": "[5]; numeric bounds", "value": "> 100", "unit": "nM"},
      {"measurement": "HD-Drosophila Phenotypic assay (rescue of rough eye phenotype)", "setting": "[6]", "value": "@ (rough eye phenotype of HD flies is rescued by testing compound less than 40%)"}
    ]},
    {"compound": "OB(O)c1ccc(CN[C@@H]2CCCc3c2[nH]c2ccc(Br)cc32)cc1", "note": "[Compound 38, (R)-(4-(((6-bromo-2,3,4,9-tetrahydro-1H-carbazol-1-yl)amino)methyl)phenyl)boronic acid]", "values": [
      {"measurement": "IC50", "setting": "[1]", "value": "≤ 0.1", "unit": "µM"},
      {"measurement": "M2-8 Cell viability", "setting": "[2]", "value": "+ (cell viability is greater than 50% at the concentration of 1000 nM)"},
      {"measurement": "IC20", "setting": "[3]", "value": "101 to 300", "unit": "nM"},
      {"measurement": "IC20", "setting": "[4]", "value": "> 1000", "unit": "nM"},
      {"measurement": "LBC viability at IC20", "setting": "[7]", "value": "* (cell viability is greater than 60% at the concentration of IC20)"},
      {"measurement": "IC20", "setting": "[5]; class symbols", "value": "< 100", "unit": "nM"},
      {"measurement": "iPSC viability at IC20", "setting": "[8]", "value": "+ (cell viability is greater than 75% at the concentration of IC20)"},
      {"measurement": "Mouse HepStability (CLhepatocyte)", "setting": "[9]", "value": "C (CLhepatocyte >30 μl/min/10^6cells)"}
    ]}
  ]
}
